Results on two compounds are retold here after US7820651B2, “Preparation of antimicrobial formulations using 7-oxa-2-thia-1,5-diazabicyclo[3.3.1]nonane-2,2-dione” (priority 2006, dated 2010).

Bounds are passed on as bounds.

Data set [1] deals with P. aeruginosa (ATCC 15442). In words: Bactericidal activity according to DIN EN 1040 (membrane filtration), microbial count reduction. Format: cell-based. Particulars: 20°±1° C., pH 6.3. As for the experimental part:
(§1) With regard to a possible use as lock solution, a solution was prepared, for testing for antimicrobial activity, by dissolving 0.85 g of cyclotaurolidine and 4.8 g of monosodium citrate in water (100 ml) with stirring, a clear colorless solution being obtained. After the pH of the solution had been adjusted to 6.3, the solution was filtered and filled into ampoules. The bactericidal and fungicidal activity of the solution was tested by a recognized test laboratory according to DIN EN 1040 and DIN EN 1275 (membrane filtration) against the test organisms S. aureus (ATCC 6538), P. aeruginosa (ATCC 15442), S. epidermis (ATCC 12288), C. albicans (ATCC 10231) and A. niger (ATCC 16404). The microbial count reductions observed for an action time of the test solution of 60 min and of 24 h at a test temperature of 20°±1° C. were determined. The results are given in log steps of the microbial count reduction, minimum reductions of ≧5.0 log steps being required with respect to the test microorganisms S. aureus, P. aeruginosa and S. epidermis and log steps of ≧4.0 for C. albicans and A. niger, based on DIN EN 1040 and DIN EN 1275.

For data set [2], the system named is S. aureus (ATCC 6538). Described as above. Format: cell-based. Conditions: 20°±1° C., pH 6.3. As to the method:
as §1

Data set [3] relates to S. epidermis (ATCC 12288). Described as above. It counts as cell-based. Particulars: 20°±1° C., pH 6.3. As to the method: as §1
Data set [4] has as its system A. niger (ATCC 16404). In words: Fungicidal activity according to DIN EN 1275 (membrane filtration), microbial count reduction. Format: cell-based. Particulars: 20°±1° C., pH 6.3. As to the method: as §1
Data set [5] deals with C. albicans (ATCC 10231). Described as above. Format: cell-based. Particulars: 20°±1° C., pH 6.3. As to the method: as §1
Data set [6] can be described thus: Exploratory experiments for dissolving in water (solubility). Format: physicochemical. Particulars: in 100 ml of water at room temperature.
Data set [7] is classed as physicochemical. The source says: In contrast to taurolidin, cyclotaurolidine can therefore also be processed to give formulations in organic vehicles, for example in many customary organic vehicle materials for pharmaceutical and cosmetic purposes. This permits, for example, advantageous use in ointments and gels and on plastic surfaces (in the surface layers of stents), for example in agents for disinfecting the skin surface or as a fungicide, for example for the feet.

[8] abbreviates: action time 60 min, comparative aqueous solution, 2% by weight of taurolidin with citrate.
Where [9] appears, read: action time 24 h, comparative aqueous solution, 2% by weight of taurolidin with citrate.
Where [10] appears, read: action time 60 min, 0.85 g cyclotaurolidine and 4.8 g monosodium citrate in 100 ml water.
Setting [11] is: action time 24 h, 0.85 g cyclotaurolidine and 4.8 g monosodium citrate in 100 ml water.

On to `O=S1(=O)CCN(CN2CCS(=O)(=O)NC2)CN1` [taurolidin, reference compound], for which the microbial count reduction is reported as greater than 5.27 log steps in data set [1] (setting [8]); no less than 5.27 log steps in data set [1] (setting [9]); 1.33 log steps in data set [2] (setting [8]); no less than 5.25 log steps in data set [2] (setting [9]); greater than 0.99 log steps in data set [3] (setting [8]); no less than 5.29 log steps in data set [3] (setting [9]). Moreover, the microbial count reduction is given as 1.18 log steps in data set [4] (setting [8]), no less than 4.08 log steps in data set [4] (setting [9]), 0 log steps in data set [5] (setting [8]) and 3.70 log steps in data set [5] (setting [9]).

In general, solubility refers to how much of the substance goes into solution per volume. A lower solubility goes with little dissolved substance. For `O=S1(=O)CCN2COCN1C2` [cyclotaurolidine, 7-oxa-2-thia-1,5-diazabicyclo[3.3.1]nonane-2,2-dione], the solubility in data set [6] was no more than 13 mg/mL. The microbial count reduction is on record as greater than 5.27 log steps in data set [1] (setting [10]); greater than 5.27 log steps in data set [1] (setting [11]); 2.04 log steps in data set [2] (setting [10]); greater than 5.25 log steps in data set [2] (setting [11]); 1.22 log steps in data set [3] (setting [10]); greater than 5.29 log steps in data set [3] (setting [11]). The microbial count reduction is greater than 4.08 log steps in data set [4] (setting [10]), greater than 4.08 log steps in data set [4] (setting [11]), greater than 4.26 log steps in data set [5] (setting [10]) and greater than 4.26 log steps in data set [5] (setting [11]). The “solubility in organic solvents” value in data set [7] is on record as “soluble in various organic solvents”. The “stability in the air” value in data set [7] is “stable in the air at customary temperatures”.
